Assay results taken from ChEMBL document CHEMBL1128154, “16,19-cis-murisolin and murisolin a, two novel bioactive mono-tetrahydrofuran annonaceous acetogenins from Asimina triloba seeds” (Bioorg Med Chem Lett, 1995).
In brackets after ≈: the same amount, converted by molar mass.

How the values were obtained:
[1] = Lethality in Brine shrimp lethality test; conditions: artemia
[2] = test system: MIA PaCa-2; test: Cytotoxicity against human pancreatic carcinoma MIA PaCa-2 cell lines; format: functional; conditions: read-out: ED50 (the source's name)
[3] = test system: PC-3; test: Cytotoxicity against human prostate adenocarcinoma PC-3 cell lines; format: functional; conditions: read-out: ED50 (the source's name)
[4] = test system: A549; test: Cytotoxicity against human lung carcinoma A-549 cell lines; format: functional; conditions: read-out: ED50 (the source's name)
[5] = test system: MCF7; test: Cytotoxicity against human breast carcinoma MCF-7 cell lines; format: functional; conditions: read-out: ED50 (the source's name)
[6] = test system: A498; test: Cytotoxicity against human kidney carcinoma A-498cell lines; format: functional; conditions: read-out: ED50 (the source's name)
[7] = test system: HT-29; test: Cytotoxicity against human colon adenocarcinoma HT-29 cell lines; format: functional; conditions: read-out: ED50 (the source's name)

Row | SMILES | LC50 [1] [ng/mL] | EC50 [2] [ng/mL] | EC50 [3] [ng/mL] | EC50 [4] [ng/mL] | EC50 [5] [ng/mL] | EC50 [6] [ng/mL] | EC50 [7] [ng/mL]
1 | CCCCCCCCCCCCC(O)[C@H]1CC[C@H]([C@H](O)CCCCCCCCCCC(O)CC2=C[C@H](C)OC2=O)O1 (single isomer, unassigned) | 183 (≈ 315 nM) | 51.8 (≈ 89.2 nM) | 8410 (≈ 14500 nM) | 0.00316 (≈ 0.00544 nM) | 5400 (≈ 9300 nM) | 66.7 (≈ 115 nM) | 
2 | CCCCCCCCCCCCC(O)C1CC[C@H]([C@H](O)CCCCCCCCCCC(O)CC2=C[C@H](C)OC2=O)O1 (single isomer, unassigned) | 346 (≈ 596 nM) | 15.3 (≈ 26.3 nM) | 1420 (≈ 2440 nM) | 3.41 (≈ 5.87 nM) | 15.8 (≈ 27.2 nM) | 4160 (≈ 7160 nM) | 1270 (≈ 2190 nM)
3 | COc1cccc2c1C(=O)c1c(O)c3c(c(O)c1C2=O)C[C@@](O)(C(=O)CO)C[C@@H]3O[C@H]1C[C@H](N)[C@H](O)[C@H](C)O1 [DOXORUBICIN] |  | 1.36 (≈ 2.5 nM) | 34.9 (≈ 64.2 nM) | 3.99 (≈ 7.34 nM) | 420 (≈ 773 nM) | 2.26 (≈ 4.16 nM) | 24.3 (≈ 44.7 nM)
4 | CCCCCCCCCCCCC(O)[C@@H]1CC[C@H]([C@H](O)CCCCCCCCCCC(O)CC2=C[C@H](C)OC2=O)O1 (single isomer, unassigned) | 207 (≈ 356 nM) | 1.5 (≈ 2.58 nM) | 2360 (≈ 4060 nM) |  | 3150 (≈ 5420 nM) |  | 
